According to patent publication US5753631A, “Intercellular adhesion mediators” (Cytel Corporation, priority 1995, dated 1998):

Key:
ELAM-1 [1] = target: T1, ELAM-1 (Homo sapiens, UniProt P16581); assay: Liposome inhibition of neutrophil (PMN) adhesion to IL-1 activated endothelium (HUVEC); format: cell-based; settings: for inhibition of neutrophil adhesion to activated endothelium: E-Selectin dependent binding assay, liposomes
T1 construct: adhesion of neutrophils (PMN)
T1 sequence (P16581 22-610): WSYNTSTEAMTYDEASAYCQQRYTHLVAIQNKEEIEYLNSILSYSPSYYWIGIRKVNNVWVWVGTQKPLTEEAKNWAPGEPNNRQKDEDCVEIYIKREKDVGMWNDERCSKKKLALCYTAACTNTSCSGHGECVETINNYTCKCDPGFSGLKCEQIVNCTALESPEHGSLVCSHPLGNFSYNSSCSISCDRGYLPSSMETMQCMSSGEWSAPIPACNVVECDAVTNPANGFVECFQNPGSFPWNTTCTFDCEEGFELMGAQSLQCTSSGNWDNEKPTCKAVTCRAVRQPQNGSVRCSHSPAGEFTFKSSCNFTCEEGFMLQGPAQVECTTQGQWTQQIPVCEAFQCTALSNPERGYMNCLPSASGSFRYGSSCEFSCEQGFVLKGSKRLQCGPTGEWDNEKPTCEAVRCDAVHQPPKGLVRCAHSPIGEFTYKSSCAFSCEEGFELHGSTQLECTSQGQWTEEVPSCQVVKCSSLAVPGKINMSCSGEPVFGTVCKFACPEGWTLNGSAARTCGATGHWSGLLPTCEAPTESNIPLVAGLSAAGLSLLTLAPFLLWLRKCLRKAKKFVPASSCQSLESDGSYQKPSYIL
Method: Two synthetic compounds were prepared. One comprised sialic acid in an α2,3 linkage, as in naturally occurring SLe^x. The second comprised sialic acid in an α2,6 linkage, to examine the importance of the nature of the linkage to receptor binding.
Liposomes were prepared by adding 12 μl of absolute ethanol (ETOH) to each tube, warming briefly in a 50° C. water bath and sonicating for 2 min. 238 μl of warm phosphate buffered saline (PBS) was added slowly to each tube while sonicating and sonication was continued for a further 10 min. The final concentration of stock liposomes was 400 μg glycolipids/ml in 5% ETOH/PBS.
1. HUVECs, PMNs, and liposomes were prepared as described above.
2. The stimulated HUVEC assay plate was removed from the incubator and the wells were washed two times with RPMI 1640 containing 5 mg/ml bovine serum albumin (BSA).
3. Liposomes stocks were diluted in the HBSS/BSA buffer to make solutions equal to: 40 μg/ml, 30 μg/ml, 15 μg/ml, 7.5 μg/ml, 3.75 μg/ml and 1.87 μg/ml. Similar dilutions were prepared from a control stock consisting of PBS-5% ETOH.
4. The medium was removed from the wells of the assay plate with a pasteur pipette, a few wells at a time.
5. 0.05 ml of each liposome suspension was added to duplicate wells on the stimulated assay plate. Control wells received the liposome buffer containing ethanol HBSS and BSA at the same concentrations as in the liposome containing wells. Control buffer was plated on unstimulated and stimulated HUVEC. Liposome containing samples were added to stimulated wells only.
6. The plates were incubated for 40 min at 37° C. and then 50 μl of PMNs were added to the assay wells. The final concentration of cells was 5×10^5 well in 100 μl.
7. The assay plate was returned to the incubator (5% CO2, 37° C.) for 8 min.
8. Unbound cells were removed from the wells of the assay plates by systematic resuspension using a P200 multichannel pipette followed by addition and removal of 0.2 ml of medium.
9. All of the medium was removed from the wells and 50 μl of solubilization buffer was added. This consisted of citrate buffer (24.3 ml of 0.1M Citric acid, 10.5 g/500 ml+25.7 ml of 0.2M dibasic sodium phosphate, 14.2 g/500 ml and SQ H2 O to 100 ml) containing 0.1% NP-40 detergent.
10. The plate was incubated on a rotary shaker for 10 min and then 0.05 ml of OPDA solution [8 mg o-phenylene-diamine, Sigma cat# P-1526, 8 μl of 30% H2 O2 and 10 ml of citrate buffer (as above)] was added to each well. The reaction was allowed to develop for 15 min and then 25 μl of 4N H2 SO4 was added to each well to stop the reaction.
11. A reagent bulk was prepared by mixing 100 μl volumes of the solubilization buffer and the OPDA solution with 50 μl of 4N H2 SO4.
12. 100 μl of supernatant was removed from each of 2 wells and transferred to a flexible ELISA assay plate (Falcon). The plate was scanned spectrophotometrically at 492 nm within 30 min.

ELAM-1 [2] = target: T1, ELAM-1; assay: as above; format: cell-based; settings: 0.47 μg/ml; Control +IL-1β 0.782
selectin receptors = settings: Berg et al.; cited from earlier work
[3] = 1.87 μg/ml, Control +IL-1β 0.725
[4] = 3.75 μg/ml, Control +IL-1β 0.698
[5] = 7.5 μg/ml, Control +IL-1β 0.658

Molecule | Mean absorbance at 492 nm (bound neutrophils) (ELAM-1 [1]; [3]) | Mean absorbance at 492 nm (bound neutrophils) (ELAM-1 [1]; [4]) | Mean absorbance at 492 nm (bound neutrophils) (ELAM-1 [1]; [5]) | Mean absorbance at 492 nm (bound neutrophils) (ELAM-1 [1]; 15 μg/ml, Control +IL-1β 0.740) | Mean absorbance at 492 nm (bound neutrophils) (ELAM-1 [1]; 20 μg/ml, Control +IL-1β 0.657) | inhibition of neutrophil adhesion to activated endothelium (ELAM-1 [1]) | Mean absorbance at 492 nm (bound neutrophils) (ELAM-1 [2]) | recognition by selectin receptors (selectin receptors)
NeuAcα2,3Galβ1,4(Fucα1,3) GlcNAcβ1,3Galβ1,4Glcβ1,1Ceramide [(2,3) SLe^x] | 0.580 | 0.483 | 0.359 | 0.270 | 0.156 | inhibit neutrophil adhesion to activated endothelium | 0.642 | 
CC(=O)N[C@H]1[C@H]([C@H](O)[C@H](O)CO)O[C@@](O[C@H]2[C@@H](O)[C@@H](CO)O[C@@H](O[C@H]3[C@H](O[C@@H]4O[C@@H](C)[C@@H](O)[C@@H](O)[C@@H]4O)[C@@H](CO)OC(O)[C@@H]3NC(C)=O)[C@@H]2O)(C(=O)O)C[C@@H]1O (stereo partly drawn) [SLe^a, NeuAcα2,3Galβ1,3(Fucα1,4)GlcNAcβ1--] |  |  |  |  |  |  |  | recognized by selectin receptors
NeuAcα2,6Galβ1,4(fucα1,3)GlcNacβ1,3Galβ1,4Glcβ1,1Ceramide [(2,6) SLe^x, reference compound] | 0.690 | 0.655 | 0.602 | 0.636 | 0.663 | not | 0.695 | 
